Molecular target: T1, β-glucuronidase (GUS) (Escherichia coli, UniProt P05804)
T1 construct: gene uidA
Assay: fluorescent 4-MUG hydrolysis assay with purchased E. coli GUS; Lineweaver-Burk plots
Type: biochemical

T1 sequence (P05804 whole entry): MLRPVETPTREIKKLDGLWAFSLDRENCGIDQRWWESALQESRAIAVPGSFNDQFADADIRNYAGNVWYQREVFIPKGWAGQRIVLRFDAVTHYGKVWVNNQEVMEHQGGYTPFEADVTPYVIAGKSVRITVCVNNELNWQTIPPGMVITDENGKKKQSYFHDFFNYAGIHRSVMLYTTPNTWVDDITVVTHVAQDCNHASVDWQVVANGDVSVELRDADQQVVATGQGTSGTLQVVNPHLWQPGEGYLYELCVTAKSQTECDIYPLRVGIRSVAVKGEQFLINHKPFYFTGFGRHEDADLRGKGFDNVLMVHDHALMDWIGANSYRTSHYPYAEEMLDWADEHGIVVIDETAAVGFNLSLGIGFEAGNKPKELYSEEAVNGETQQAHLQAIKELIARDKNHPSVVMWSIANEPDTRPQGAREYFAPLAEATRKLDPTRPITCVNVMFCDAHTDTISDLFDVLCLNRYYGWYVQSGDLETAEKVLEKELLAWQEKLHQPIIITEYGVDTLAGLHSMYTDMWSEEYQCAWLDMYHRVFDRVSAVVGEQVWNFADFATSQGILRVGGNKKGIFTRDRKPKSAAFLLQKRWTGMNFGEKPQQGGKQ

Q: How did the IC50 turn out when `COc1ccc2cc3[n+](cc2c1OC)CCc1cc2c(cc1-3)OCO2` [Berberine, 9,10-dimethoxy-5,6-dihydro-(1,3)dioxolo (4,5-g)isoquinolino (3,2-a)isoquinolin-7-ium] was run?
A: 54 ± 5.1 µM

Reference: PMC8593678, “Berberine Improves Irinotecan-Induced Intestinal Mucositis Without Impairing the Anti-colorectal Cancer Efficacy of Irinotecan by Inhibiting Bacterial β-glucuronidase” (Frontiers in Pharmacology, 2021)
